Reference: article PMC6199744, “Development of Chemical Proteomics for the Folateome and Analysis of the Kinetoplastid Folateome” (ACS Infectious Diseases, 2018)
Read-outs that look alike come from different tables or passages of the source.

Columns and labels:
Type in all cases: binding
[1] = biological target: T1, HeLa cell extract proteins (Homo sapiens, UniProt O95373)
T1 construct: endogenous in cells; host or cells: HeLa cell extract

[2] = biological target: T2, HeLa cell extract proteins (Homo sapiens, UniProt P08758)
T2 construct: endogenous in cells; host or cells: HeLa cell extract
T2 sequence (P08758 1-320): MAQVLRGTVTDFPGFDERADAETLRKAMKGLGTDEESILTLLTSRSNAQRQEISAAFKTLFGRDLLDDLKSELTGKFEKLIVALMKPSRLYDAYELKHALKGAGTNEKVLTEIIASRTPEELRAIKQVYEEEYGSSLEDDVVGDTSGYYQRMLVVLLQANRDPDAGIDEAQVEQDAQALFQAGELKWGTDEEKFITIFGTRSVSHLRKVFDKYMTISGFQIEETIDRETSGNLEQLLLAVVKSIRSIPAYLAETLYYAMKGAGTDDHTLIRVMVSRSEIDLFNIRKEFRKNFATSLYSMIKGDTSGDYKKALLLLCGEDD

[3] = biological target: T3, HeLa cell extract proteins (Homo sapiens, UniProt P14678)
T3 construct: endogenous in cells; host or cells: HeLa cell extract

[4] = biological target: T4, HeLa cell extract proteins (Homo sapiens, UniProt P16615)
T4 construct: endogenous in cells; host or cells: HeLa cell extract

[5] = biological target: T5, HeLa cell extract proteins (Homo sapiens, UniProt P26639)
T5 construct: endogenous in cells; host or cells: HeLa cell extract
T5 sequence (P26639 1-723): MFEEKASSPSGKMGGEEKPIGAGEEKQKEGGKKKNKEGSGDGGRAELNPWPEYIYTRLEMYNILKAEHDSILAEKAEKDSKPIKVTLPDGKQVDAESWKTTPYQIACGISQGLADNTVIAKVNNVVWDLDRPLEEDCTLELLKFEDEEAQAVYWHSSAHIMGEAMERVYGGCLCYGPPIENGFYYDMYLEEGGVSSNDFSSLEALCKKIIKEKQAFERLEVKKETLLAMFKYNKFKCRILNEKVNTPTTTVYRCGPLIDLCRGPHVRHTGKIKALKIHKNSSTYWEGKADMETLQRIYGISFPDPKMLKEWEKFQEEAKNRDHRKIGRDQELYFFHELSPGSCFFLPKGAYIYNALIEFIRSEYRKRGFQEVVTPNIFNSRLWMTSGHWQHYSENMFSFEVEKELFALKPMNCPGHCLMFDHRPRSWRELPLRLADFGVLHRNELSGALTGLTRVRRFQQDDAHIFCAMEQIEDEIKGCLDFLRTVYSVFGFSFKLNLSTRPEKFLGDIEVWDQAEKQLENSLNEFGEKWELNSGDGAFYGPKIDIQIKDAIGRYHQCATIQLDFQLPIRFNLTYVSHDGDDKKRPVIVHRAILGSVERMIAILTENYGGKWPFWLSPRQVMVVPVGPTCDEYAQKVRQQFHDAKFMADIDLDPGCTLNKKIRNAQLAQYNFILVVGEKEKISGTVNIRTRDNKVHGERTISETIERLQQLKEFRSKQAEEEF

[6] = biological target: T6, HeLa cell extract proteins (Homo sapiens, UniProt P31040)
T6 construct: endogenous in cells; host or cells: HeLa cell extract

[7] = biological target: T7, HeLa cell extract proteins (Homo sapiens, UniProt P35680)
T7 construct: endogenous in cells; host or cells: HeLa cell extract

[8] = biological target: T8, HeLa cell extract proteins (Homo sapiens, UniProt P63104)
T8 construct: endogenous in cells; host or cells: HeLa cell extract
T8 sequence (P63104 1-245): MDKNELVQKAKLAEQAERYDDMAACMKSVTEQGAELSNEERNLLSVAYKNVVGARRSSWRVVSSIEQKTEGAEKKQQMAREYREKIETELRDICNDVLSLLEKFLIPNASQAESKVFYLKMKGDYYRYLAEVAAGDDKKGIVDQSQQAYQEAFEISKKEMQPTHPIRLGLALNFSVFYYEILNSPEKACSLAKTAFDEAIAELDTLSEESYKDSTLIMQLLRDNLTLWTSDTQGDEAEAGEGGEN

[9] = biological target: T9, HeLa cell extract proteins (Homo sapiens, UniProt P63208)
T9 construct: endogenous in cells; host or cells: HeLa cell extract

[10] = biological target: T10, HeLa cell extract proteins (Homo sapiens, UniProt Q5JVF3)
T10 construct: endogenous in cells; host or cells: HeLa cell extract

[11] = biological target: T11, HeLa cell extract proteins (Homo sapiens, UniProt Q7Z3U7)
T11 construct: endogenous in cells; host or cells: HeLa cell extract

[12] = biological target: T12, HeLa cell extract proteins (Homo sapiens, UniProt Q92973)
T12 construct: endogenous in cells; host or cells: HeLa cell extract
T12 sequence (Q92973 1-898): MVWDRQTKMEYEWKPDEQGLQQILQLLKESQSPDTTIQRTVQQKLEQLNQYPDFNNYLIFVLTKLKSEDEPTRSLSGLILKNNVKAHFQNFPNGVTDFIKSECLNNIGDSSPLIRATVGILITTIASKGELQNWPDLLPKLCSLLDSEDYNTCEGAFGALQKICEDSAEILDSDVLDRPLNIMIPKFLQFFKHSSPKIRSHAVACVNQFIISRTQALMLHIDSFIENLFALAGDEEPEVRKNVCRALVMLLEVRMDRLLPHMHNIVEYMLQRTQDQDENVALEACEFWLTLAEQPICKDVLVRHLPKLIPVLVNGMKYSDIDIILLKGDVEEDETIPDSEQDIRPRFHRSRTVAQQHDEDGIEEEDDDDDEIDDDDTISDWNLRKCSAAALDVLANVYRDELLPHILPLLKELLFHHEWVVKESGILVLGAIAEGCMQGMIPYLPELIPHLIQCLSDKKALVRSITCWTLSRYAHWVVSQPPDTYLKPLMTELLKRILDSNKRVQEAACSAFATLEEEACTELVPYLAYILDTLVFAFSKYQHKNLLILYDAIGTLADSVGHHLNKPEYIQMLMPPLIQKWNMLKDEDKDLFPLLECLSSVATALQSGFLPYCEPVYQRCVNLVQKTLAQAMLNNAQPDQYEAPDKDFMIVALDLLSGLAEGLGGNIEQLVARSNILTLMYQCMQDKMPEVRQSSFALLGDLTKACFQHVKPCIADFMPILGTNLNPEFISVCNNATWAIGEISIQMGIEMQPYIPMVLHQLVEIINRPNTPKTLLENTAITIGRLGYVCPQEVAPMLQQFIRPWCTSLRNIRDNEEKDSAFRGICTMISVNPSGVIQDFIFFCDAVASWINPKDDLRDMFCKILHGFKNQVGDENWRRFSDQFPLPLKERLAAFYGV

[13] = HeLa, protein ANXA5 (ANNEXIN A5.)
[14] = HeLa, protein YWHAZ (28 KDA PROTEIN.)

T9 sequence (P63208 whole entry): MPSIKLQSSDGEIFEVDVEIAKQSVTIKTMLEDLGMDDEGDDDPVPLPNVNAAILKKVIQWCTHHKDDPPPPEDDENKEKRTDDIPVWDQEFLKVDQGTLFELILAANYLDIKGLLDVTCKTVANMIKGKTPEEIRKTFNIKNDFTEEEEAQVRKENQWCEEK
T7 sequence (P35680 whole entry): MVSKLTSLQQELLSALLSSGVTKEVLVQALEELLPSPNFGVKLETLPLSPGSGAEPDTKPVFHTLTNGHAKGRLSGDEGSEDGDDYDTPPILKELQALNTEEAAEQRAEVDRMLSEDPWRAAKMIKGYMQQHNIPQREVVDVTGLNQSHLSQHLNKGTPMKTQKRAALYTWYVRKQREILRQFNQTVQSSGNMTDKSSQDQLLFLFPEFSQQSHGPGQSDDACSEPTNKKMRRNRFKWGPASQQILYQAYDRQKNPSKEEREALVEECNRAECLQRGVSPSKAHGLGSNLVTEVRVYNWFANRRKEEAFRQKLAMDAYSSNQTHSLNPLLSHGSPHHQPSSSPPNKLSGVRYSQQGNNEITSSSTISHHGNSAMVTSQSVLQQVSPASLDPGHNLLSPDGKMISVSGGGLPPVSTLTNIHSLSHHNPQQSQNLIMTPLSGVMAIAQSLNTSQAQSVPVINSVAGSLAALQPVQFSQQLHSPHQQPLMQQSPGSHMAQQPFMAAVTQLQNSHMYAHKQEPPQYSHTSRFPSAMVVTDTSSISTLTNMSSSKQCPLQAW
T6 sequence (P31040 43-664): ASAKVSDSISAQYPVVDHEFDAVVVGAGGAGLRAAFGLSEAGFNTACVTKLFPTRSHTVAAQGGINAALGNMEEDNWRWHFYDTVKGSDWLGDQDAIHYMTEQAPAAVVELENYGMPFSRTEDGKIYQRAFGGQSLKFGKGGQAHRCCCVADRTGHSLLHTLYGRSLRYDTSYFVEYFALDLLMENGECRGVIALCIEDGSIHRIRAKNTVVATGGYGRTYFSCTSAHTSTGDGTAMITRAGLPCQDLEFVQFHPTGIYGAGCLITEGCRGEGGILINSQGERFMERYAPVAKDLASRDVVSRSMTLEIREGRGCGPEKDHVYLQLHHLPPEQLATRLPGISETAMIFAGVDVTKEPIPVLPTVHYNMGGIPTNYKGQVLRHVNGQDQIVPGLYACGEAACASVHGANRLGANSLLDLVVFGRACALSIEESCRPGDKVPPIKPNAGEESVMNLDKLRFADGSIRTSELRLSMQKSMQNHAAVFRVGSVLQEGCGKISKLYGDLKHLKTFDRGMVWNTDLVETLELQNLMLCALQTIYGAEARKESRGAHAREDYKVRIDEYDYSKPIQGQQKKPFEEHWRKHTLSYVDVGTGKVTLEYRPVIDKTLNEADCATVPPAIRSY
T4 sequence (P16615 whole entry): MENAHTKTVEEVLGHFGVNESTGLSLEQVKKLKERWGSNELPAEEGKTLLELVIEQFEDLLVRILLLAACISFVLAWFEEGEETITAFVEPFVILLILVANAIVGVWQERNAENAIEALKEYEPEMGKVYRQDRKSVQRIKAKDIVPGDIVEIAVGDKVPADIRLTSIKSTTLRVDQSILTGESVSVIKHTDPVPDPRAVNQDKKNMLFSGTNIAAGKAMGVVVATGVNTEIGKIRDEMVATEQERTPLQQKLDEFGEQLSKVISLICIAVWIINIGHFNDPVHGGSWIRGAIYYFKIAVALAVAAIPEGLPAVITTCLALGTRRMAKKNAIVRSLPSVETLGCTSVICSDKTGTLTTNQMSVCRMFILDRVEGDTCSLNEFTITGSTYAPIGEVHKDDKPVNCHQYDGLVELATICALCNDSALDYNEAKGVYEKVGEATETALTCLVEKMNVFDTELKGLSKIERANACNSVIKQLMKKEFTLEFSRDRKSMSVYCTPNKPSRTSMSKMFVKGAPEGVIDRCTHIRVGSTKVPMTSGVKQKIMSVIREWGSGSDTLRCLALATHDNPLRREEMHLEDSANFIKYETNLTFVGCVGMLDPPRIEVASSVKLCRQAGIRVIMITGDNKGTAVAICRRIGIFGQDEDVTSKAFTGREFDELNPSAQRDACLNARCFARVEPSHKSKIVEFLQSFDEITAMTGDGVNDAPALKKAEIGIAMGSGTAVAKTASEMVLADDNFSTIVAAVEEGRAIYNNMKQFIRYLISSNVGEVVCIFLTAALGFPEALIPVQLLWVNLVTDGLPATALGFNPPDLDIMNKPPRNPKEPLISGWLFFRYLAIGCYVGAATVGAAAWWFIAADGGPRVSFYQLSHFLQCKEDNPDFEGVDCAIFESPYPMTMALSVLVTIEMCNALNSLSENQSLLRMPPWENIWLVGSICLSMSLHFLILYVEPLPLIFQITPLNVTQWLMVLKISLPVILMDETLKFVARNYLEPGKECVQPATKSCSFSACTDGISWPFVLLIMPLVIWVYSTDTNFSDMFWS
T11 sequence (Q7Z3U7 whole entry): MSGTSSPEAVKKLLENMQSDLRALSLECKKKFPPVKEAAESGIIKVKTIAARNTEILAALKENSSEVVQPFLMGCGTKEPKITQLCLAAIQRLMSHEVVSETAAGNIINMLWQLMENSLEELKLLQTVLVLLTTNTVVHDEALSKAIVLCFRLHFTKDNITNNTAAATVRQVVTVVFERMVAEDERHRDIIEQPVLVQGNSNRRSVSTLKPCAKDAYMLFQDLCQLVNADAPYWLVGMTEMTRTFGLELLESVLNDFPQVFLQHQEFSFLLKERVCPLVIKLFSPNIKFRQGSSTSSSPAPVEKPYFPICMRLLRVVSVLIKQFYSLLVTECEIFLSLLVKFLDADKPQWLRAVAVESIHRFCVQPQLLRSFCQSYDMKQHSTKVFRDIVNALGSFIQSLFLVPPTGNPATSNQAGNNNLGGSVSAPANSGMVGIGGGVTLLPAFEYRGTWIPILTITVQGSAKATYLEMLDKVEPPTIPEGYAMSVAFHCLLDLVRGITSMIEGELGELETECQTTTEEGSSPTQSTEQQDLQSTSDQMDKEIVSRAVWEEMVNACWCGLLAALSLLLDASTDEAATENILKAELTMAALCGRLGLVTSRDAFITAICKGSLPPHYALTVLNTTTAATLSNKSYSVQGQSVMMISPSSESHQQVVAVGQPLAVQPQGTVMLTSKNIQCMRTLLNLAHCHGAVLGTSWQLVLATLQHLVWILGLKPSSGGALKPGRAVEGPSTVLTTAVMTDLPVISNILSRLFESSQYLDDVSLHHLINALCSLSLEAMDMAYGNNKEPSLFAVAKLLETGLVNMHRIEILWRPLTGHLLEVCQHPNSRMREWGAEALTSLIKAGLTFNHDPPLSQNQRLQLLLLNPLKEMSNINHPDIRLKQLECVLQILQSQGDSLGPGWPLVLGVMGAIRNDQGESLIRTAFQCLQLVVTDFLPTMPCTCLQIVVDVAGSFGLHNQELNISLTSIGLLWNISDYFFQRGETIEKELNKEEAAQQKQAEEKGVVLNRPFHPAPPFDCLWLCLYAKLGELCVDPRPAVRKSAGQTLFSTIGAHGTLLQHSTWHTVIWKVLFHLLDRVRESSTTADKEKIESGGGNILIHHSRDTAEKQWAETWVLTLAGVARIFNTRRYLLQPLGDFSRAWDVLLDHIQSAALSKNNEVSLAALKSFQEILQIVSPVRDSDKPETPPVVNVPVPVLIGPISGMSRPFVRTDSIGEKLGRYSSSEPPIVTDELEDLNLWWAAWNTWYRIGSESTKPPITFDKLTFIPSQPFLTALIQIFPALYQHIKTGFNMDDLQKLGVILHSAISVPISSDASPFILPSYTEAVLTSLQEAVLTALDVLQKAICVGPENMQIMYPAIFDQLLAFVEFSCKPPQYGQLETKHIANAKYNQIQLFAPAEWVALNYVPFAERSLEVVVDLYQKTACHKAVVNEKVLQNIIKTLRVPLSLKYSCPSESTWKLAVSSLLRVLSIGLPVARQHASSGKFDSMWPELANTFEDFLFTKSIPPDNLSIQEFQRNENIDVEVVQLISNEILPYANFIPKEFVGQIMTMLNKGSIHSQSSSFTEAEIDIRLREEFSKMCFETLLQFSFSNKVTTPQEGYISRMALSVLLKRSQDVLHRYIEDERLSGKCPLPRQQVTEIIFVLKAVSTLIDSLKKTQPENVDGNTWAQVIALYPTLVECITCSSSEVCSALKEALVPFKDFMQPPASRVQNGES
T10 sequence (Q5JVF3 whole entry): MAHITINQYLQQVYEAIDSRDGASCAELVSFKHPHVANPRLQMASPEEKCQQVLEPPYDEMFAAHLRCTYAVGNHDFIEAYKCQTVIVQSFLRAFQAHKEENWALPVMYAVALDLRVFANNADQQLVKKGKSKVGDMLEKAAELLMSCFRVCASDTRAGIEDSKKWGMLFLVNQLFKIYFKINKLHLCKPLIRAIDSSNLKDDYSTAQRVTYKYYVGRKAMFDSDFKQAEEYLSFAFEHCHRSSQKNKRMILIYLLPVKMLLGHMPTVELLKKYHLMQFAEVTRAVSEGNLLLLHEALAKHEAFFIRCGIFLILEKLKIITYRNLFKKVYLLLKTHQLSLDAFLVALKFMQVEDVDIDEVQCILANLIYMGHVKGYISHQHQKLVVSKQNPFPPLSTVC

Row | SMILES | fold changes relative to vehicle control ([1]; protein IPO7, HeLa) | fold changes relative to vehicle control [2, 13] | fold changes relative to vehicle control ([3]; protein SNRPB, HeLa) | fold changes relative to vehicle control ([4]; HeLa, protein ATP2A2) | fold changes relative to vehicle control ([5]; protein TARS, HeLa) | fold changes relative to vehicle control ([6]; protein SDHA, HeLa) | fold changes relative to vehicle control ([7]; captured protein HNF1B, HeLa) | fold changes relative to vehicle control [8, 14] | fold changes relative to vehicle control ([9]; captured protein SKP1, HeLa) | fold changes relative to vehicle control ([10]; HeLa, protein PCID2) | fold changes relative to vehicle control ([11]; HeLa, protein MON2) | fold changes relative to vehicle control ([12]; protein TNPO1, HeLa) | fold changes relative to vehicle control ([1]; HeLa, protein IPO7) | fold changes relative to vehicle control ([2]; HeLa, protein ANXA5) | fold changes relative to vehicle control ([3]; HeLa, captured protein SNRPB) | fold changes relative to vehicle control ([5]; HeLa, protein TARS) | fold changes relative to vehicle control ([6]; HeLa, captured protein SDHA) | fold changes relative to vehicle control ([7]; HeLa, protein HNF1B) | fold changes relative to vehicle control ([8]; HeLa, protein YWHAZ) | fold changes relative to vehicle control ([9]; HeLa, captured protein SKP1) | further results
1 | Nc1nc2cccc(-c3ccccc3)c2n1Cc1ccc(Cl)c(Cl)c1 [compound 3] | 1.17 | 0.91 fold | 1.04 | 0.98 | 0.98 | 1.02 | 1 | 0.72 fold | 0.87 | 1.2 | 1.18 | 1 | – | – | – | – | – | – | – | – | –
2 | Nc1nc2[nH]cc(CCc3ccc(C(=O)N[C@@H](CCC(=O)O)C(=O)O)cc3)c2c(=O)[nH]1 [PTX, pemetrexed] | – | – | – | – | – | – | – | – | – | – | – | – | – | – | – | – | – | – | – | – | fold changes relative to vehicle control [1]: 0.93; fold changes relative to vehicle control [2]: 0.97; fold changes relative to vehicle control [3]: 1.12; fold changes relative to vehicle control [4]: 1.03; fold changes relative to vehicle control [5]: 1.02; fold changes relative to vehicle control [6]: 0.97; fold changes relative to vehicle control [7]: 0.82; fold changes relative to vehicle control [8]: 1.08; fold changes relative to vehicle control [9]: 1.13; fold changes relative to vehicle control [10]: 0.68; fold changes relative to vehicle control [11]: 1.05; fold changes relative to vehicle control [12]: 0.94
3 | Nc1nc2c(c(=O)[nH]1)N(C=O)C(CNc1ccc(C(=O)N[C@@H](CCC(=O)O)C(=O)O)cc1)CN2 (stereo partly drawn) [LEU, leucovorin] | – | – | – | 1 | – | – | – | – | – | – | – | – | 0.94 | 0.99 | 1.16 | 1.03 | 1 | 0.87 | 1.05 | 1.09 | fold changes relative to vehicle control ([10]; protein PCID2, HeLa): 0.74; fold changes relative to vehicle control ([11]; HeLa, captured protein MON2): 1.04; fold changes relative to vehicle control ([12]; HeLa, protein TNPO1): 0.98
4 | CCCCCCOc1cccc(Cc2cnc(N)nc2N)c1 [compound 2] | 1.09 | 2.23 fold | 1.46 | 1.12 | 2.02 | 1.2 | 1.01 | 2.26 fold | 1.21 | 0.97 | 1.08 | 1.1 | – | – | – | – | – | – | – | – | –
5 | NCCOCCOCC(=O)Nc1nc2ncc(CNc3ccc(C(=O)NC(CCC(=O)O)C(=O)O)cc3)nc2c(=O)[nH]1 (stereo not drawn) [compound 6] | – | – | – | 1.03 | – | – | – | – | – | – | – | – | 0.98 | 1.26 | 1.16 | 1.12 | 1.06 | 0.81 | 1.22 | 0.97 | fold changes relative to vehicle control ([10]; protein PCID2, HeLa): 0.91; fold changes relative to vehicle control ([11]; HeLa, captured protein MON2): 1.17; fold changes relative to vehicle control ([12]; HeLa, protein TNPO1): 1.03
6 | CCCCCCOc1ccc(Cc2cnc(N)nc2N)cc1 [compound 1] | 0.93 | 1.33 fold | 1.17 | 1.05 | 1.27 | 1.19 | 0.64 | 1.31 fold | 1.04 | 1.13 | 1.11 | 1.01 | – | – | – | – | – | – | – | – | –
7 | NCCCNc1ccc(C(=O)NC(CCC(=O)O)C(=O)O)cc1 (stereo not drawn) [compound 7] | – | – | – | 0.99 | – | – | – | – | – | – | – | – | 0.99 | 0.9 | 1.16 | 0.97 | 0.92 | 1.07 | 0.9 | 1.01 | fold changes relative to vehicle control ([10]; protein PCID2, HeLa): 0.75; fold changes relative to vehicle control ([11]; HeLa, captured protein MON2): 1.25; fold changes relative to vehicle control ([12]; HeLa, protein TNPO1): 0.99
